Measured values as given in patent publication US11726079B2, “Lighting systems and methods of using lighting systems for in vitro potency assay for Photofrin” (Concordia Laboratories, Inc., priority 2012, dated 2023).
Where “and” joins values, the source holds several entries; their conditions need not be identical. Equal entries are not always repeated. Marks after values point to notes of the source that are not given here.

Tested on: A549 human lung carcinoma cells
Test: In vitro potency assay for Photofrin®: A549 cells, 4 h drug absorption, wash, 10 min irradiation at 400-650 nm, 24 h, XTT viability, 4PL EC50
Assay type: cell-based
Set-up: key to EC50-XTT / EC50 STD / EC50 Test: EC50 as Photofrin concentration in μg/mL (4PL inflection point)
Details: for EC50 Test / Black plate EC50 / EC50 STD: in µg/mL; for Black plate EC50: black plate with black lid; for Clear Plate EC50: clear 96-well plate; for Potency of Test Sample / Potency of Test Sample, Mean / Experimental Potency: ratio EC50(standard)/EC50(test); for Potency of Test Sample / Potency of Test Sample, Mean: expected 0.5; for EC50 STD: standard sample (70 μg/mL high test drug concentration)
Experimental: Cell passaging of A549 cells is performed using fixed seeding densities to reduce assay variation resulting from cell culture conditions. […] Working in very low light conditions, Photofrin® is reconstituted in normal saline to 2.5 mg/mL and diluted further in culture medium at twice the desired final assay concentration, typically 140 μg/mL. A series of two-fold dilutions were then prepared from the 140 μg/mL solution and the diluted drug was added to the cells at 1:1 (v/v) according to the diagram shown in FIG. 11.
[…] The plate is then removed from the incubator, the drug is aspirated, the wells are washed with Dulbecco's phosphate buffered saline (DPBS) and fresh, pre-warmed medium is added to the wells. […] […] The wells covered with foil strips are important controls for the activity of Photofrin® in the absence of irradiation and the effect of light on the cells in the absence of drug.
The optical absorbance of the wells in column 1 (high drug concentration, no cells) is evaluated for absorption at 450 nm to ensure that the drug is not interfering with the XTT assay. The percent viability of each of the wells in columns 2-9 and 11 is calculated relative to the mean value of column 10 (cell control, no drug, no light). For each dose response obtained, a four parameter logistic (4PL) nonlinear regression analysis is performed of the percent viability versus the log-Photofrin® concentration. The point of inflection of the regression curve (C value) is defined as the EC50 and used in the calculation of relative potency. Curve fitting and calculation of the EC50 is performed with Softmax v5.4.2 (Molecular Devices, Inc.) or Prism v.5.04 (GraphPad, Software Inc.) software. The mean percent viability of columns 9 and 11 is also calculated.
• 1. Materials and Reagents • 1.1. A549 Human Lung Carcinoma (ATCC—Cat. No.: CCL-185) • 1.2. 25 cm^2 Flasks (Corning—Cat. No.: 431463, or equivalent) • 1.3. 75 cm^2 Flasks (Corning—Cat. No.: 431464, or equivalent) • 1.4. 50 mL tubes (Fisher Scientific—Cat. No. 17-512F, or equivalent) • 1.5. Hemacytometer • 1.6. RPMI-1640 (+) phenol red (Lonza—Cat. No.: 12-167F, or equivalent) • 1.7. HI-FBS (Gibco—Life Technologies—Cat No.: 10082-147, or equivalent) • 1.8. 200 mM L-Glutamine (Lonza—Cat. No.: 17-605E, or equivalent) • 1.9. 0.25% Trypsin-EDTA (Gibco—Cat. No.: 25200-056, or equivalent) • 2. Instruments • 2.1. Forma Scientific centrifuge with swinging bucket rotor (Model 5682, or equivalent) • 2.2. Water bath set at 37° C. • 2.3. […] Prepared Reagents • 3.1. RPMI-1640 Complete Media • 3.1.1. 500 mL bottle of RPMI-1640 basal media containing phenol red • 3.1.2. Add 50 mL HI-FBS • 3.1.3. Add 5.5 mL of 200 mM L-Glutamine • 4. Procedure • 4.1. Remove one vial of A549 lung carcinoma cells from liquid nitrogen storage and after ensuring that the vial is tightly closed, rapidly thaw vial by holding all but the top of the vial submerged in a 37° C. water bath until the vial contents begins to thaw but while ice still remains. • 4.2. Liberally spray the vial with 70% ethanol, wipe with tissue, and place into a laminar flow hood. • 4.3. Transfer the contents of the vial to a 50 mL conical tube containing 9 mL RPMI-1640 complete medium containing phenol red (Step 3.1) (hereafter referred to as complete medium in this method). • 4.4. Centrifuge the tube in a swing bucket rotor set at 1200 RPM (220 RCF) for five minutes at room temperature. • 4.5. Discard supernatant and gently flick the tube to resuspend the cells in the residual volume left in the tube. • 4.6. Add 5 mL complete medium, transfer the cell solution to a 25 cm^2 flask, and then place the flask into a 37° C. incubator with 5% CO2. • 4.7. Monitor the flask daily and when the cells reach approximately 80% confluence, remove the media, and wash the cells by adding 2 mL DPBS to the flask. Ensure that all cells are rinsed and discard the DPBS. • 4.8. Add 1 mL 0.25% trypsin-EDTA to prewash the cells, tip flask to coat all cells, and discard the trypsin. • 4.9. […]

[1] = seeding density 0.8 × 10^4 cells/well
[2] = seeding density 1.2 × 10^4 cells/well
[3] = seeding density 1.9 × 10^4 cells/well

porfimer sodium [Photofrin®]
EC50 Test (Test sample of theoretical potency 0.5): 21.3 and 21.7
EC50 Test (Test sample of theoretical potency 2): 5.16
EC50 Test (Test sample of theoretical potency 4 (dissolved in one-fourth the nominal volume), confidence interval wide due to poor curve fitting): 2.36*
Test Sample EC50 (Test sample, 35 μg/mL high test concentration regressed as if 70 μg/mL, Plate 1 (placement Standard, Test; left to right dilution; controls in columns 9-11)): 21.2 µg/mL
Test Sample EC50 (Test sample, 35 μg/mL high test concentration regressed as if 70 μg/mL, Plate 2 (placement Test, Standard; left to right dilution; controls in columns 9-11)): 22.2 µg/mL
Test Sample EC50 (Test sample, 35 μg/mL high test concentration regressed as if 70 μg/mL, Plate 3 (right to left dilution; controls in columns 9-11)): 21.5 µg/mL
Test Sample EC50 (Test sample, 35 μg/mL high test concentration regressed as if 70 μg/mL, Plate 4 (placement Standard, Test; left to right dilution; controls in columns 9-11)): 21.5 µg/mL
Test Sample EC50 (Test sample, 35 μg/mL high test concentration regressed as if 70 μg/mL, Plate 5 (left to right dilution; controls in columns 2-4)): 20.1 µg/mL
Test Sample EC50, Mean (Test sample, 35 μg/mL high test concentration regressed as if 70 μg/mL, mean across Plates 1-5 of positional analysis): 21.3 µg/mL
Black plate EC50 (experiment PIN-004, nine point dose response 250-0.977 μg/m): 8.08
Black plate EC50 (experiment PIN-008, six point dose response 30.0-1.09 μg/mL): 10.1 and 9.48 and 9.59
Black plate EC50, Mean (black plate, mean of PIN-004 and PIN-008 values): 9.31 µg/mL
Clear Plate EC50 (experiment PIN-004, nine point dose response 250-0.977 μg/m, in µg/mL (unit assumed)): 1.87
Clear Plate EC50 (experiment PIN-008, six point dose response 30.0-1.09 μg/mL, in µg/mL (unit assumed)): 2.49 and 2.46 and 2.33
Clear Plate EC50, Mean (clear plate, mean of PIN-004 and PIN-008 values): 2.29 µg/mL
EC50-XTT (experiment PIN-009, XTT endpoint, in µg/mL (unit assumed)): 9.48 and 9.42
EC50-XTT, Mean (experiment PIN-009, XTT endpoint, mean): 9.45 µg/mL
Potency of Test Sample (A549 cells at passage P10): 0.556
Potency of Test Sample (A549 cells at passage P17): 0.526
Potency of Test Sample (Inter-operator Assay, AB-1): 0.465
Potency of Test Sample (Inter-operator Assay, AB-2): 0.564
Potency of Test Sample, Mean (Inter-operator Assay, mean of operator AB plates): 0.515
Potency of Test Sample, Mean (Inter-operator Assay, mean of operator KP plates): 0.487
Potency of Test Sample (Inter-operator Assay, operator KP, both plates KP-1): 0.470 and 0.503
Potency of Test Sample (absorption time 3.5 hours): 0.533
Potency of Test Sample (absorption time 4.0 hours): 0.507
Potency of Test Sample (absorption time 4.5 hours): 0.573
Potency of Test Sample (irradiation time 8 minutes): 0.490
Potency of Test Sample (irradiation time 9 minutes): 0.476
Potency of Test Sample (irradiation time 10 minutes): 0.487
Potency of Test Sample (irradiation time 11 minutes): 0.555
Potency of Test Sample (irradiation time 12 minutes): 0.514
Potency of Test Sample (operator AB Pilot Assay-1): 0.411
Potency of Test Sample (operator AB Pilot Assay-2): 0.537
Potency of Test Sample (post-irradiation incubation time 22 hours): 0.549
Potency of Test Sample (post-irradiation incubation time 24 hours): 0.54
Potency of Test Sample (post-irradiation incubation time 26 hours): 0.575
Potency of Test Sample (post-irradiation temperature 35° C.): 0.448
Potency of Test Sample (post-irradiation temperature 37° C. (nominal, two experiments)): 0.543 and 0.495
Potency of Test Sample (post-irradiation temperature 39° C.): 0.516
Potency of Test Sample [1]: 0.521
Potency of Test Sample [2]: 0.391
Potency of Test Sample [3]: 0.526
Experimental Potency (theoretical potency 0.5): 0.526 and 0.516
Experimental Potency (theoretical potency 2): 2.05
Experimental Potency (theoretical potency 4, wide confidence interval on EC50): 4.36*
Mean Potency (ratio of the EC50(standard)/EC50(test), positional analysis, Plates 1-5, Test sample is Standard diluted two-fold): 0.516
EC50 STD (assayed with Test sample of theoretical potency 0.25): 11.6
EC50 STD (assayed with Test sample of theoretical potency 2): 10.6
EC50 STD (assayed with Test sample of theoretical potency 4): 10.3
EC50 STD [1]: 11.0
EC50 STD [2]: 10.9
EC50 STD [3]: 11.2
killing of the cells (treatment of cells followed by irradiation at 400-650 nm): dose-dependent killing of the cells
